Assay results as given in PubChem BioAssay AID806 (SRMLSC, 2007).
The source made the active and inactive calls. The rule behind the calls is not given here.

Tested on: virus-infected cells, CPE inhibition, dose response
Experiment: PubChem AID 806
Details: for EC90: measured here: EC90 CPE inhibition; for CC50: measured here: cytotoxicity, cell viability IC50

Structure (SMILES) | EC50 | EC90 [µM] | CC50 [µM]
Cc1ccccc1Nc1ncnc2c1cnn2-c1ccccc1 | > 60 µM (inactive) | > 60 | > 60
CCN(CC)S(=O)(=O)c1ccc(C(=O)NCc2ccc(C)cc2)cc1 | > 60 µM (inactive) | > 60 | > 60
COc1ccc(S(=O)(=O)Nc2ccc(F)cc2)cc1N(C)S(=O)(=O)c1ccc(Cl)cc1 | > 60 µM (inactive) | > 60 | > 60
COCc1cc(=O)n2c(-c3ccccc3OC)n[nH]c2n1 | > 60 µM (inactive) | > 60 | > 60
C=CCSc1nnc(-c2cccnc2)o1 |  | > 60 | > 60
COCCNC(=O)C(c1ccco1)N(C(=O)Cn1nnc2ccccc21)c1ccccc1C (stereo not given) | > 60 µM (inactive) | > 60 | > 60
O=C(CSc1ccc2nnc(-c3ccc(F)cc3)n2n1)NCc1ccco1 | > 60 µM (inactive) | > 60 | > 60
O=C(c1cnn2c(C(F)(F)F)cc(-c3ccccc3)nc12)N1CCOCC1 | > 60 µM (inactive) | > 60 | > 60
CC(=O)Nc1cccc(NC(=O)c2cc3ccccc3o2)c1 | > 60 µM (inactive) | > 60 | > 60
O=C(c1noc2c1CCc1ccccc1-2)N1CCOCC1 | > 60 µM (inactive) | > 60 | > 60
CN(C)c1cccc(C(=O)Nc2ccc3nc4n(c(=O)c3c2)CCCCC4)c1 | 17.4 µM | > 60 | > 60
O=C(CSc1ccc2nnc(-c3ccccc3)n2n1)NCc1ccco1 | > 60 µM (inactive) | > 60 | > 60
O=C(CSc1ccc2nnc(-c3ccccn3)n2n1)NCc1ccco1 | > 60 µM (inactive) | > 60 | > 60
O=C1CC(C(=O)Nc2ccc(Br)cc2)C2(CCCC2)O1 (stereo not given) | > 60 µM (inactive) | > 60 | > 60
CC(C)NC(=O)CSc1nnc2sc3ccccc3n12 | > 60 µM (inactive) | > 60 | > 60
CCCCN(C(=O)Cn1nnc2ccccc21)C(C(=O)NCCOC)c1ccc(OC)cc1OC (stereo not given) | > 60 µM (inactive) | > 60 | > 60
Cc1cc(NC(=O)CSc2nnc(CNc3ccc(F)cc3)n2C2CCCCC2)no1 | 61.8 µM (inactive) | > 60 | > 60
CCOC(=O)c1cnn(-c2ccccc2)c1-n1cccc1C(=O)C(=O)Nc1ccccc1C(F)(F)F | > 60 µM (inactive) | > 60 | > 60
CCOC(=O)/C=C1\SCC(=O)N1CC(=O)Nc1ccc(OC)c(OC)c1 | > 60 µM (inactive) | > 60 | > 60
CN(C)CCSc1nnc(-c2ccccc2)o1 | > 60 µM (inactive) | > 60 | > 60
CC1CCN(C(=O)Nc2cccc(NC(=O)N3CCC(C)CC3)c2)CC1 | > 60 µM (inactive) | > 60 | > 60
CCSc1nnc(-c2ccncc2)o1 | > 60 µM (inactive) | > 60 | > 60
O=C(c1cc(-c2ccc(Cl)cc2)n(-c2ccc(Cl)cc2Cl)n1)N1CCOCC1 | > 60 µM (inactive) | > 60 | > 60

Structure (SMILES) | EC50 | EC90 [µM] | CC50 [µM]
O=C(c1cnn2c(C(F)F)cc(C3CC3)nc12)N1CCOCC1 | > 60 µM (inactive) | > 60 | > 60
COC(=O)Nc1ccc(S(=O)(=O)N2CCCCC2C(=O)NCc2ccco2)cc1 (stereo not given) | > 60 µM (inactive) | > 60 | > 60
CC(=O)Nc1ccc(Nc2ncnc3c2cnn3-c2ccccc2)cc1 | > 60 µM (inactive) | > 60 | > 60
O=C(CSc1ccc2nnc(-c3ccncc3)n2n1)NCc1ccco1 | > 60 µM (inactive) | > 60 | > 60
COc1ccc(Nc2ncnc3c2cnn3-c2ccccc2)cc1OC | > 60 µM (inactive) | > 60 | > 60
CC(C)(C)c1ccc(S(=O)(=O)N2CCCCC2C(=O)NCc2ccccn2)cc1 (stereo not given) | > 60 µM (inactive) | > 60 | > 60
COc1ccccc1Cn1c(=O)c2ccccc2n2c(SCC(=O)N3CCCCC3)nnc12 | > 60 µM (inactive) | > 60 | > 60
COc1ccc(NC(=O)C2CC(=O)OC23CCOC(C)(C)C3)cc1 (stereo not given) | > 60 µM (inactive) | > 60 | > 60
CCCCCn1c(=O)c(C(=O)Nc2c(C)n(C)n(-c3ccccc3)c2=O)c(O)c2ccccc21 | > 60 µM (inactive) | > 60 | > 60
NC(=O)CSc1nnc2sc3ccccc3n12 | > 60 µM (inactive) | > 60 | > 60
COc1ccccc1CNC(=O)c1ccc(S(=O)(=O)N(C)C)cc1 | > 60 µM (inactive) | > 60 | > 60
CCOC(=O)CN(C(=O)Cn1nnc2ccccc21)C(C(=O)NCCOC)c1ccccc1C (stereo not given) | > 60 µM (inactive) | > 60 | > 60
O=C(c1cnn2c(C(F)(F)F)cc(-c3ccc(Br)cc3)nc12)N1CCOCC1 | > 60 µM (inactive) | > 60 | > 60
CCOc1ccc(NC(=O)CCS(=O)(=O)c2cccc3nsnc23)cc1 | > 60 µM (inactive) | > 60 | > 60
O=C(CSc1ccc2nnc(-c3cccc(F)c3)n2n1)NCc1ccco1 | > 60 µM (inactive) | > 60 | > 60
CCC(=O)N1CCn2c1nc1ccccc12 | > 60 µM (inactive) | > 60 | > 60
COC(=O)Cc1c(C)nc2nc(-c3ccccc3)[nH]n2c1=O | > 60 µM (inactive) | > 60 | > 60
O=C(CCS(=O)(=O)c1cccc2nsnc12)NC1CCCCC1 | > 60 µM (inactive) | > 60 | > 60
CSc1nnc(-c2ccccc2Cl)o1 | > 60 µM (inactive) | > 60 | > 60
CCC(C)(C)NC(=O)C(c1cccnc1)N(CCOC)C(=O)Cn1nnc2ccccc21 (stereo not given) | > 60 µM (inactive) | > 60 | > 60
CC1Cc2ccccc2N1C(=O)CSc1nnc2sc3ccccc3n12 (stereo not given) | > 60 µM (inactive) | > 60 | 10.1
Cc1cc(NC(=O)c2noc3c2CCc2ccccc2-3)no1 | > 60 µM (inactive) | > 60 | > 60
COc1ccccc1CNC(=O)c1ccc(S(=O)(=O)N2CCCC2)cc1 | > 60 µM (inactive) | > 60 | > 60

Structure (SMILES) | EC50 | EC90 [µM] | CC50 [µM]
O=C(C1CCCCN1S(=O)(=O)c1ccccc1)N1CCCCC1 (stereo not given) | > 60 µM (inactive) | > 60 | > 60
O=C(Cn1cnc2ccccc2c1=O)N(Cc1ccco1)c1ccc(O)cc1 | > 60 µM (inactive) | > 60 | > 60
CCSc1nnc(-c2ccc(Cl)cc2Cl)o1 |  | > 60 | 43.7
COc1cc(OC)c(C2=NOC(C(=O)Nc3cc(C)nn3-c3ccccc3)C2)cc1Cl (stereo not given) | > 60 µM (inactive) | > 60 | > 60
Cc1nc2nc(-c3cccnc3)[nH]n2c(=O)c1Cc1ccccc1 | > 60 µM (inactive) | > 60 | > 60
O=C(NCc1cccnc1)C1CCCCN1S(=O)(=O)c1ccc(F)cc1 (stereo not given) | > 60 µM (inactive) | > 60 | > 60
Cc1c(C(=O)Nc2ccccn2)oc2ccccc12 | > 60 µM (inactive) | > 60 | > 60
COCCNC(=O)c1noc2c1CCc1cc(OC)ccc1-2 | > 60 µM (inactive) | > 60 | > 60
O=C1c2ccccc2-c2onc3ccc(Oc4ccccc4)c1c23 | > 60 µM (inactive) | > 60 | 17.7
COCCCNC(=O)C1CCCCN1S(=O)(=O)c1ccc(F)cc1 (stereo not given) | > 60 µM (inactive) | > 60 | > 60
COc1cccc(CNC(=O)c2ccc(S(=O)(=O)N3CCCC3)cc2)c1 | > 60 µM (inactive) | > 60 | > 60
COCCNC(=O)C(c1ccccc1C)N(CCOC)C(=O)Cn1nnc2ccccc21 (stereo not given) | > 60 µM (inactive) | > 60 | > 60
COc1ccc(C)cc1NC(=O)c1cc2ccccc2o1 | > 60 µM (inactive) | > 60 | > 60
N#CCCN1CCn2c1nc1ccccc12 | > 60 µM (inactive) | > 60 | > 60
O=C(NCc1cccs1)c1ccc(N2CCCCC2)nc1 | > 60 µM (inactive) | > 60 | > 60
CCOc1ccccc1NC(=O)C1CCCCN1S(=O)(=O)c1ccc(F)cc1 (stereo not given) | > 60 µM (inactive) | > 60 | > 60
CC1CC(=O)C2=C(C1)Nc1ccccc1N(C(=O)COc1ccccc1)C2c1ccco1 (stereo not given) | > 60 µM (inactive) | > 60 | > 60
C#CCSc1nnc(-c2ccc(OC)cc2)o1 | > 60 µM (inactive) | > 60 | > 60
COc1ccc(C)cc1NC(=O)C1CC(=O)OC12CCCCC2 (stereo not given) | > 60 µM (inactive) | > 60 | > 60
CCS(=O)(=O)Nc1cccc(-c2nc3cccnc3s2)c1C | > 60 µM (inactive) | > 60 | > 60
Cn1nc([N+](=O)[O-])nc1Sc1nnc(-c2ccccc2)o1 | > 60 µM (inactive) | > 60 | > 60
N#CCCCSc1nnc(-c2ccccn2)o1 | > 60 µM (inactive) | > 60 | > 60
CCCCN(C(=O)Cn1nnc2ccccc21)C(C(=O)NCCOC)c1ccccc1 (stereo not given) | > 60 µM (inactive) | > 60 | > 60
